{"source": "patent US20260034092A1", "about": "“BIOCIDAL COMPOSITION” (priority 2022, published 2026)", "key": {"[1]": {"test_system": "bacterial Biofilm (Listeria monocytogenes ATCC 35152, Clostridium sporogenes ATCC 19404, Candida albicans ATCC 26555 and Escherichia col)", "experiment": "MIC test against bacterial Biofilm", "assay_type": "cell-based", "details": "incubated 48 h at 37° C."}, "[2]": {"test_system": "Pseudomonas aeruginosa (ATCC 15442)", "experiment": "Minimum Inhibitory Concentration (MIC) test", "details": "incubated 48 h at 37° C."}}}
{"smiles": "CC12CCC(CC1)C(C)(C)O2", "note": "[Eucalyptol, 1,3,3-Trimethyl-2-oxabicyclo[2.2.2]octane]", "values": [{"measurement": "Minimum inhibitory concentration (MIC)", "setting": "[1]", "value": 1.21, "unit": "%"}, {"measurement": "Minimum inhibitory concentration (MIC)", "setting": "[2]", "value": 1.09, "unit": "%"}]}
{"smiles": "Cc1ccc(C(C)C)cc1O", "note": "[Carvacrol, 5-Isopropil-2-metilfenol]", "values": [{"measurement": "Minimum inhibitory concentration (MIC)", "setting": "[1]", "value": 1.01, "unit": "%"}, {"measurement": "Minimum inhibitory concentration (MIC)", "setting": "[2]", "value": 0.89, "unit": "%"}]}
{"smiles": "CC1CCC(C(C)C)C(O)C1", "note": "(stereo not shown) [Menthol, 5-Methyl-2-(propan-2-yl)cyclohexan-1-ol]", "values": [{"measurement": "Minimum inhibitory concentration (MIC)", "setting": "[1]", "value": 5.98, "unit": "%"}, {"measurement": "Minimum inhibitory concentration (MIC)", "setting": "[2]", "value": 5.32, "unit": "%"}]}
{"smiles": "Cc1ccc(C(C)C)c(O)c1", "note": "[Thymol, 5-Methyl-2-(propan-2-yl) phenol]", "values": [{"measurement": "Minimum inhibitory concentration (MIC)", "setting": "[1]", "value": 2.29, "unit": "%"}, {"measurement": "Minimum inhibitory concentration (MIC)", "setting": "[2]", "value": 2.11, "unit": "%"}]}
{"smiles": "CC1=CCC(O)(C(C)C)CC1", "note": "(stereo not shown) [Terpinen-4-ol, 4-Methyl-1-(propan-2-yl)cyclohex-3-en-1-ol]", "values": [{"measurement": "Minimum inhibitory concentration (MIC)", "setting": "[1]", "value": 1.96, "unit": "%"}, {"measurement": "Minimum inhibitory concentration (MIC)", "setting": "[2]", "value": 1.64, "unit": "%"}]}
